This passage reports IC50 results from patent US9969749B2, “Inhibitors of IRAK4 activity” (MERCK SHARP & DOHME CORP., priority 2014, dated 2018).

One may read the IC50 as the point on the concentration scale where inhibition reaches its midpoint.

Where only a bound is given, the exact number is not on record here.

In this experiment the target is IRAK4 (Homo sapiens (Human), UniProt Q9NWZ3). The experiment is described as follows: IRAK4 Kinase Assay (IMAP fluorescence polarization). The experiment is classed as biochemical. The settings on record: 0.5 nM GST tagged IRAK4, 100 μM ATP, 100 nM fluorescent peptide substrate RP7030, 30 minutes at 25° C. Put shortly: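 GST-tagged IRAK4 (0.5 nM) phosphorylates 100 nM fluorescent peptide with 100 μM ATP in 10 mM Tris pH 7.2, 1 mM MgCl2, 1 mM DTT, 0.01% Tween 20 for 30 min at 25 °C. Phosphorylation read as IMAP nanoparticle-binding fluorescence polarization after stop reagent.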
IRAK4, sequence (Q9NWZ3 whole entry): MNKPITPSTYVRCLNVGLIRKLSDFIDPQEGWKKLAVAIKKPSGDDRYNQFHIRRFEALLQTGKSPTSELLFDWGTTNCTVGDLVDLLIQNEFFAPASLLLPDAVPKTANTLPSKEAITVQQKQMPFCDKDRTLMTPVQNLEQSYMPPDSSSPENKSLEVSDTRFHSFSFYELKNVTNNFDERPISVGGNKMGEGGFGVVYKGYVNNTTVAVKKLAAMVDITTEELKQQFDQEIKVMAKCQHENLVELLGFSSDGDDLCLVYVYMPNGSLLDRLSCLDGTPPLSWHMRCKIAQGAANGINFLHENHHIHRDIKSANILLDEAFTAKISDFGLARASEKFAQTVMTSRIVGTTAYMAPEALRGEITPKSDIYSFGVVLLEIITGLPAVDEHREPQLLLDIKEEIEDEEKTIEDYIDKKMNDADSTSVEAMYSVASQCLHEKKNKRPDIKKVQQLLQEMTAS
(Fluorescence polarisation rises when a labelled molecule tumbles more slowly, as on binding a larger partner.)
As for `CNc1cncc(-c2ccc3ncnc(N[C@H]4CC[C@H](N5CCC[C@H](CN6CCOCC6)C5)CC4)c3c2)c1` [Example 5-11, 6-[5-(methylamino)pyridin-3-yl]-N-{trans-4-[(3R)-3-(morpholin-4-ylmethyl)piperidin-1-yl]cyclohexyl}quinazolin-4-amine], the IC50 is 2 nM.

Take `CNc1cncc(-c2ccc3ncnc(N[C@H]4CC[C@H](N5CCC[C@@H](CN6CCOCC6)C5)CC4)c3c2)c1` [Example 5-12, 6-[5-(methylamino)pyridin-3-yl]-N-{trans-4-[(3S)-3-(morpholin-4-ylmethyl)piperidin-1-yl]cyclohexyl}quinazolin-4-amine]: the 50% inhibitory concentration (IC50) stood at 5 nM.

`Oc1cc(-c2ccc3ncnc(N[C@H]4CC[C@H](N5CCC(F)CC5)CC4)c3c2)cnc1F` [Example 5-13, 2-fluoro-5-(4-{[trans-4-(4-fluoropiperidin-1-yl)cyclohexyl]amino}quinazolin-6-yl)pyridin-3-ol] registered a half-maximal inhibitory concentration (IC50) below 0.5 nM.

Turning to `CS(=O)(=O)N1CCN([C@H]2CC[C@H](Nc3ncnc4ccc(-c5cnc(F)c(O)c5)cc34)CC2)CC1` [Example 5-14, 2-fluoro-5-[4-({trans-4-[4-(methylsulfonyl)piperazin-1-yl]cyclohexyl}amino)quinazolin-6-yl]pyridin-3-ol], 1 nM corresponded to half-maximal inhibition (IC50).

For `Nc1cc(-c2ccc3ncnc(N[C@H]4CC[C@H](N5CCC(F)(F)CC5)CC4)c3c2)cnc1F` [Example 5-15, 6-(5-amino-6-fluoropyridin-3-yl)-N-[trans-4-(4,4-difluoropiperidin-1-yl)cyclohexyl]quinazolin-4-amine], the concentration for half-maximal inhibition (IC50) is 2 nM.

Regarding `Nc1cc(-c2ccc3ncnc(N[C@H]4CC[C@H](N5CCC(F)CC5)CC4)c3c2)cnc1F` [Example 5-16, 6-(5-amino-6-fluoropyridin-3-yl)-N-[trans-4-(4-fluoropiperidin-1-yl)cyclohexyl]quinazolin-4-amine], the IC50 was determined as 1 nM. Against the preceding compound, the IC50 is about 2-fold lower.

The compound `Oc1cncc(-c2ccc3ncnc(N[C@H]4CC[C@H](N5CCC(F)(F)CC5)CC4)c3c2)c1` [Example 5-17, 5-(4-{[trans-4-(4,4-difluoropiperidin-1-yl)cyclohexyl]amino}quinazolin-6-yl)pyridin-3-ol] registered a 50% inhibitory concentration (IC50) below 0.5 nM.

Regarding `Oc1cncc(-c2ccc3ncnc(N[C@H]4CC[C@H](N5CCC(F)CC5)CC4)c3c2)c1` [Example 5-18, 5-(4-{[trans-4-(4-fluoropiperidin-1-yl)cyclohexyl]amino}quinazolin-6-yl)pyridin-3-ol], the half-inhibitory concentration (IC50) is below 0.5 nM.

`C[C@@H]1CN([C@H]2CC[C@H](Nc3ncnc4ccc(-c5cnc(F)c(N)c5)cc34)CC2)C[C@H](C)O1` [Example 5-19, 6-(5-amino-6-fluoropyridin-3-yl)-N-{trans-4-[(2R,6S)-2,6-dimethylmorpholin-4-yl]cyclohexyl}quinazolin-4-amine]: 1 nM corresponded to half-maximal inhibition (IC50).

Regarding `CS(=O)(=O)N1CCN([C@H]2CC[C@H](Nc3ncnc4ccc(-c5cnc(F)c(N)c5)cc34)CC2)CC1` [Example 5-20, 6-(5-amino-6-fluoropyridin-3-yl)-N-{trans-4-[4-(methylsulfonyl)piperazin-1-yl]cyclohexyl}quinazolin-4-amine], inhibition was half-maximal at 4 nM (IC50).

`Nc1cc(-c2ccc3ncnc(N[C@H]4CC[C@H](N5CCCC(CN6CCOCC6)C5)CC4)c3c2)cnc1F` (stereo partly drawn) [Example 5-21, 6-(5-amino-6-fluoropyridin-3-yl)-N-{trans-4-[3-(morpholin-4-ylmethyl)piperidin-1-yl]cyclohexyl}quinazolin-4-amine] displayed an IC50 of 2 nM.

Take `Nc1cc(-c2ccc3ncnc(N[C@H]4CC[C@H](N5CCO[C@@H](CF)C5)CC4)c3c2)cnc1F` [Example 5-22, 6-(5-amino-6-fluoropyridin-3-yl)-N-{trans-4-[(2R)-2-(fluoromethyl)morpholin-4-yl]cyclohexyl}quinazolin-4-amine]: the half-inhibitory concentration (IC50) stood at 4 nM.

Turning to `Nc1cc(-c2ccc3ncnc(N[C@H]4CC[C@H](N5CCO[C@H](CF)C5)CC4)c3c2)cnc1F` [Example 5-23, 6-(5-amino-6-fluoropyridin-3-yl)-N-{trans-4-[(2S)-2-(fluoromethyl)morpholin-4-yl]cyclohexyl}quinazolin-4-amine], 6 nM corresponded to half-maximal inhibition (IC50).

Turning to `C[C@@H]1CN([C@H]2CC[C@H](Nc3ncnc4ccc(-c5cnc(F)c(N)c5)cc34)CC2)CCO1` [Example 5-24, 6-(5-amino-6-fluoropyridin-3-yl)-N-{trans-4-[(2R)-2-methylmorpholin-4-yl]cyclohexyl}quinazolin-4-amine], the IC50 amounted to 1 nM.

On to `C[C@H]1CN([C@H]2CC[C@H](Nc3ncnc4ccc(-c5cnc(F)c(N)c5)cc34)CC2)CCO1` [Example 5-25, 6-(5-amino-6-fluoropyridin-3-yl)-N-{trans-4-[(2S)-2-methylmorpholin-4-yl]cyclohexyl}quinazolin-4-amine], for which the half-inhibitory concentration (IC50) was determined as 1 nM.

`CNc1cc(-c2ccc3ncnc(N[C@H]4CC[C@H](N5C[C@@H](C)O[C@@H](C)C5)CC4)c3c2)cnc1F` [Example 5-26, N-{trans-4-[(2R,6S)-2,6-dimethylmorpholin-4-yl]cyclohexyl}-6-[6-fluoro-5-(methylamino)pyridin-3-yl]quinazolin-4-amine] displayed an IC50 of 1 nM.

As for `CNc1cc(-c2ccc3ncnc(N[C@H]4CC[C@H](N5CCC(F)(F)CC5)CC4)c3c2)cnc1F` [Example 5-27, N-[trans-4-(4,4-difluoropiperidin-1-yl)cyclohexyl]-6-[6-fluoro-5-(methylamino)pyridin-3-yl]quinazolin-4-amine], the IC50 was 2 nM.

Turning to `CNc1cc(-c2ccc3ncnc(N[C@H]4CC[C@H](N5CCN(C(=O)C6CC6)CC5)CC4)c3c2)cnc1F` [Example 5-28, cyclopropyl {4-[trans-4-({6-[6-fluoro-5-(methylamino)pyridin-3-yl]quinazolin-4-yl}amino)cyclohexyl]piperazin-1-yl}methanone], the 50% inhibitory concentration (IC50) is 1 nM.

The compound `CNc1cc(-c2ccc3ncnc(N[C@H]4CC[C@H](N5CCC(F)CC5)CC4)c3c2)cnc1F` [Example 5-29, 6-[6-fluoro-5-(methylamino)pyridin-3-yl]-N-[trans-4-(4-fluoropiperidin-1-yl)cyclohexyl]quinazolin-4-amine] came in with an IC50 of 2 nM.

For `CNc1cc(-c2ccc3ncnc(N[C@H]4CC[C@H](N5CCO[C@H](C)C5)CC4)c3c2)cnc1F` [Example 5-30, 6-[6-fluoro-5-(methylamino)pyridin-3-yl]-N-{trans-4-[(2R)-2-methylmorpholin-4-yl]cyclohexyl}quinazolin-4-amine], the IC50 stood at 1 nM.

In turn, `CNc1cc(-c2ccc3ncnc(N[C@H]4CC[C@H](N5CCO[C@@H](C)C5)CC4)c3c2)cnc1F` [Example 5-31, 6-[6-fluoro-5-(methylamino)pyridin-3-yl]-N-{trans-4-[(2S)-2-methylmorpholin-4-yl]cyclohexyl}quinazolin-4-amine] gave an IC50 of 1 nM.
